In patent US9982231B2, “Methods for reprogramming differentiated non-cardiac cells into cardiomyocytes” (The J. David Gladstone Institutes, a testamentary trust …, priority 2013, dated 2018):

Assays:
RasGAP = biological target: T1, RasGAP (Homo sapiens, UniProt P20936); details: cited from earlier work
T1 sequence (P20936 1-1047): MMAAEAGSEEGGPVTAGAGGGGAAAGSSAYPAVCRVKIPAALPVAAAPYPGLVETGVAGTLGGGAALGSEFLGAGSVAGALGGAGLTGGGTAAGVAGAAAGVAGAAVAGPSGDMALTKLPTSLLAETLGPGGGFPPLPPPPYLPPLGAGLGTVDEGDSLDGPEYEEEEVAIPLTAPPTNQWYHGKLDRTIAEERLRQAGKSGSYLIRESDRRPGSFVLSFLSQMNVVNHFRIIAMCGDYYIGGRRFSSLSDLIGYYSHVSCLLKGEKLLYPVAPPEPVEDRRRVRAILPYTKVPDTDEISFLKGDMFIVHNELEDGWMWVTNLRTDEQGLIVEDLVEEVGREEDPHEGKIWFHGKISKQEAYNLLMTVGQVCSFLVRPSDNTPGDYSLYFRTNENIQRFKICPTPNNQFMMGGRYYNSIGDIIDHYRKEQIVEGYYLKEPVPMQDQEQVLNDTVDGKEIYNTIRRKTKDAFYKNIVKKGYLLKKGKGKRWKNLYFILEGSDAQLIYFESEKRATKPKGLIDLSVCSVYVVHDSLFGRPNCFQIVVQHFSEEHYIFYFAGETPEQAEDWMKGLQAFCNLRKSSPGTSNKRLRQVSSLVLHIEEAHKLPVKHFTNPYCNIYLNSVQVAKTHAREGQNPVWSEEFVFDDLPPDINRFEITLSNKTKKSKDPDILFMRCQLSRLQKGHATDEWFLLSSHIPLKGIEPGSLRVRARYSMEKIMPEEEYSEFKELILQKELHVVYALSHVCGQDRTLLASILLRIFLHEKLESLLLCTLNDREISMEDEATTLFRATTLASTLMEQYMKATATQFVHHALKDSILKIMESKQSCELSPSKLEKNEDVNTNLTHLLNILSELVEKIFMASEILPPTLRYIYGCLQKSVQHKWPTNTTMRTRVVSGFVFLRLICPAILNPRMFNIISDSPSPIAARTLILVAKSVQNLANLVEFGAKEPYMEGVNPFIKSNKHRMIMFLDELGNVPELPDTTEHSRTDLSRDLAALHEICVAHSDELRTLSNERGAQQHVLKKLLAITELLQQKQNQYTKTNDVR

ERK1 = ERK1 (Homo sapiens, UniProt P27361); details: cited from earlier work
Chain of ERK1 (P27361 whole entry, species assumed): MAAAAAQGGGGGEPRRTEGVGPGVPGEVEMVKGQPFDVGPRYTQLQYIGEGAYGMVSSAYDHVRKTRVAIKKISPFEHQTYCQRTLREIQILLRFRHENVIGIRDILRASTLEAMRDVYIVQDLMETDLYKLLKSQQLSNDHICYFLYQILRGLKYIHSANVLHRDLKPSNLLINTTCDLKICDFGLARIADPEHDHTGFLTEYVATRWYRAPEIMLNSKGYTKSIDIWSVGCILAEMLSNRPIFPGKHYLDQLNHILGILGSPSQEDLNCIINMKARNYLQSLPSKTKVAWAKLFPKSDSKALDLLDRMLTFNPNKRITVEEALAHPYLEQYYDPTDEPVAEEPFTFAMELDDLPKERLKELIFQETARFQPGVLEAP

[1] = system: human foreskin fibroblast cells; test: Reprogramming with PBIT as a substitute for AS8351; format: cell-based
Description: FIG. 8A graphically illustrates the knockdown efficiency of the indicated shRNAs in human foreskin fibroblast cells detected by qPCR (n=2). Expression values for each gene were normalized to those measured in control shRNA group. […] Data were collected on day 30. […] Data were collected on day 30. […] FIG. 8E illustrates immunofluorescence staining of cardiomyocyte markers on contracting clusters at day 30 after inducing reprogramming where AS8351 was replaced with 10 μM PBIT. Scale bars, 100 μm. […] Em, membrane potential. Dotted lines indicate 0 mV. F/F0, fluorescence relative to the baseline.
This conclusion was further confirmed by using a KDM5B inhibitor, PBIT (Sayegh et al., 2013) (FIGS. 8C and 8D).
KDM5B catalyzes the demethylation of tri-, di-, and mono-methylation states of H3K4 and facilitates heterochromatin formation (Mosammaparast and Shi, 2010). The inventors have observed that one effect of the reprogramming compositions described herein is on re-opening closed chromatin structures.

[2] = system: contracting cardiomyocytes derived from human fibroblast cells; test: Responses of reprogrammed cardiomyocytes to β-adrenergic and muscarinic stimulation; format: cell-based; details: cardiomyocytes reprogrammed from CRL-2097
Description: Naïve human fibroblast CRL-2097 cells were treated with cardiac reprogramming medium for 6 days followed by treatment with cardiac induction medium 1 for 5 days and then cardiac induction medium 2 for 21-26 days.
Representative beating frequencies of the reprogrammed cells are shown in FIG. 7A before (i) or after β-adrenergic stimulation by its agonist (ii, isoproterenol), or a muscarinic agonist (iii. Carbachol; CCh).

[3] = biological target: PDGF receptor tyrosine kinase; details: PDGFR kinase / PDGF receptor tyrosine kinase; cited from earlier work
[4] = system: human adult dermal fibroblasts (HADFs); test: Conversion of human adult dermal fibroblasts into chemically induced cardiomyocytes; format: cell-based
Description: 9C is the reprogramming conditions; CCM. CM-conditioned medium; D, day. […] FIG. 9C graphically illustrates test protocols for ascertaining optimal treatment durations for a combination of sodium butyrate and SMER28 (NS) (n=3). The duration shown on the x-axis of the left graph is days (e.g., D0=day zero; D-14=day 14 of treatment). […] Scale bars, 100 μm.

SAPK2/p38 = SAPK2/p38 (Homo sapiens, UniProt Q16539); details: CK1 and ALK5 inhibitor vs SAPK2/p38; cited from earlier work
Chain of SAPK2/p38 (Q16539 whole entry): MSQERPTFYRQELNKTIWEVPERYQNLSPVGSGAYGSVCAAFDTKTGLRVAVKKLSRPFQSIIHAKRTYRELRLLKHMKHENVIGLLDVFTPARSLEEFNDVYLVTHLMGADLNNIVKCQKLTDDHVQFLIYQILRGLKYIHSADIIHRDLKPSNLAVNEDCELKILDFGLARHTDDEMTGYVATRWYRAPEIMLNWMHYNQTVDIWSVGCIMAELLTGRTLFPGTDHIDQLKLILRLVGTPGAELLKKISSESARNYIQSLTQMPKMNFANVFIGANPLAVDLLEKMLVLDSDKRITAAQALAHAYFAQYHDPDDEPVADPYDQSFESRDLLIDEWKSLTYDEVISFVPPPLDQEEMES

[5] = biological target: epidermal growth factor receptor (EGFR) (Homo sapiens, UniProt P00533); details: EGFR / EGF receptor kinase; cited from earlier work
Chain of epidermal growth factor receptor (EGFR) (P00533 25-1210, species assumed): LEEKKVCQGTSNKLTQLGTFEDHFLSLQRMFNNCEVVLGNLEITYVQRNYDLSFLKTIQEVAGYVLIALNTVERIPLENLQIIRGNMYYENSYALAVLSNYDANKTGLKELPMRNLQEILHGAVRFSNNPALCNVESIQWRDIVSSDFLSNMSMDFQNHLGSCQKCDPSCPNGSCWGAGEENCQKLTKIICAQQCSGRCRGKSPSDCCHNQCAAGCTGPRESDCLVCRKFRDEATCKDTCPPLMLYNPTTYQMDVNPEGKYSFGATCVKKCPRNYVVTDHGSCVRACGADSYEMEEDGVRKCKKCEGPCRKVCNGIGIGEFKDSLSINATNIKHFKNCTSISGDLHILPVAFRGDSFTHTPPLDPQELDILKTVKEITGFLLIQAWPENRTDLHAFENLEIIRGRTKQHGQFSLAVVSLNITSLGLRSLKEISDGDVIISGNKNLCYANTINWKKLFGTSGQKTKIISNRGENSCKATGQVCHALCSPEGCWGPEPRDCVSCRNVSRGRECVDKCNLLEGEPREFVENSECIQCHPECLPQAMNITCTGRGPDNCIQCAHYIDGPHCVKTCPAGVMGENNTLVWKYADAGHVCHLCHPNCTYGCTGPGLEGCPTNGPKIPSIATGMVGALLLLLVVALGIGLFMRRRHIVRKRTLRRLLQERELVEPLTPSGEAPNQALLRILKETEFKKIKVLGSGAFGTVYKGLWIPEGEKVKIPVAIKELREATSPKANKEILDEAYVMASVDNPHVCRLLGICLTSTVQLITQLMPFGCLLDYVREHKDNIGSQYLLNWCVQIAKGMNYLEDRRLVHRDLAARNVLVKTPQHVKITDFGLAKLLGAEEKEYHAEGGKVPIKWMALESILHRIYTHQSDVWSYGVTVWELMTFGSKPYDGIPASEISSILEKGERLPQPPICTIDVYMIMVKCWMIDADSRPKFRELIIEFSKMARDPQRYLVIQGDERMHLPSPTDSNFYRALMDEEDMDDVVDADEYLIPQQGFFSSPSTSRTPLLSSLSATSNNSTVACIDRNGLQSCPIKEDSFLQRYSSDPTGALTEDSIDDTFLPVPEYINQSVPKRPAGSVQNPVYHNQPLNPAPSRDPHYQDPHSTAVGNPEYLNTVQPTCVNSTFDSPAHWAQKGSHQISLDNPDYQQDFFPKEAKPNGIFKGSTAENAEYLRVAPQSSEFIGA

[6] = biological target: platelet-derived growth factor receptor β (PDGFRβ) (Homo sapiens, UniProt P09619); details: cited from earlier work
Chain of platelet-derived growth factor receptor β (PDGFRβ) (P09619 33-1106): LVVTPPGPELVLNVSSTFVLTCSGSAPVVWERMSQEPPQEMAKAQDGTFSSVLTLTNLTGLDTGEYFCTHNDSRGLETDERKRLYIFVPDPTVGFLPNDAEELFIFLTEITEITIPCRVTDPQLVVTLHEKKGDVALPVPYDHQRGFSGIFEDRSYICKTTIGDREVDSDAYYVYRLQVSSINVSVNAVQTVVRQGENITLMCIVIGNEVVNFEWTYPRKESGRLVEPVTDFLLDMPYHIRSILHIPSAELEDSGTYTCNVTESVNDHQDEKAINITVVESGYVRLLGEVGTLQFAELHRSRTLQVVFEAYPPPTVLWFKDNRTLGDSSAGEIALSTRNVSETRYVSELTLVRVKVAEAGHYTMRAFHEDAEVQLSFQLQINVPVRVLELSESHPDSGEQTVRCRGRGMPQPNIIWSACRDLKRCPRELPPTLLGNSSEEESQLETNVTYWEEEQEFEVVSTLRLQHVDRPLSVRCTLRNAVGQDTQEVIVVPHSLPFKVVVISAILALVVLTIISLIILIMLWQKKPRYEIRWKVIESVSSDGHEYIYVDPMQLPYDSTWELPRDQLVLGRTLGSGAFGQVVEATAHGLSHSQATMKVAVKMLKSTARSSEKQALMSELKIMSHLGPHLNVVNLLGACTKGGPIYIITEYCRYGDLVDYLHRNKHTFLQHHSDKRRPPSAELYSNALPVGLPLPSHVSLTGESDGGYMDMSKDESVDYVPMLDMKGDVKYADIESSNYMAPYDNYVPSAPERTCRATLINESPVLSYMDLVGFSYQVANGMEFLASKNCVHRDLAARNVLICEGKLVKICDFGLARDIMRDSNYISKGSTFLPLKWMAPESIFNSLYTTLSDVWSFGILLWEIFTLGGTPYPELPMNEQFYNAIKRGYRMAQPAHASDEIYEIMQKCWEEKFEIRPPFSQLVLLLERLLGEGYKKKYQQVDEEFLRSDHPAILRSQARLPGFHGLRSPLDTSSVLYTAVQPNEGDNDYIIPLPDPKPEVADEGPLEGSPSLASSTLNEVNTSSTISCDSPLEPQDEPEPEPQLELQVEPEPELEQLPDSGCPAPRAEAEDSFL

[7] = 7-day pretreatment before reprogramming

## Cc1cc(Nc2ncc3c(n2)N(C)C(=O)N(c2cc(NC(=O)c4cccc(C(F)(F)F)c4)ccc2C)C3)n(C)n1 [SC1, N-(3-(7-(1,3-dimethyl-1H-pyrazol-5-ylamino)-1-methyl-2-oxo-1,2-dihydropyrimido[4,5-d]pyrimidin-3(4H)-yl)-4-methylphenyl)-3-(trifluoromethyl)benzamide]
RasGAP
  Kd: 98 nM
ERK1
  Kd: 212 nM

## Cc1ccc(-n2sc3ccccc3c2=O)cc1 [PBIT, 2-(4-methylphenyl)-1,2-benzisothiazol-3(2H)-one]
[1]; 10 μM PBIT as a substitute for AS8351
  electrophysiological features: exhibited CM-like electrophysiological features
[1]; 10 μM PBIT as a substitute for AS8351, day 30
  expression of cardiac proteins: expressed a broad panel of cardiac proteins

## CC(C)NCC(O)c1ccc(O)c(O)c1 (centres unmarked) [isoproterenol]
[2]
  effect on beating frequency: significantly increased

## COc1cc2ncc(-c3ccccc3)nc2cc1OC [AG-1296, 6,7-Dimethoxy-3-phenylquinoxaline]
[3]
  IC50: 1000 nM

## N#C/C(=C\c1ccc(O)c(O)c1)C(N)=O [Tyrphostin 46]
[3]
  IC50: 50000 nM

## CC(C)(C)c1cc(C=C(C#N)C#N)cc(C(C)(C)C)c1O [Tyrphostin 9]
[3]
  IC50: 1200 nM

## C=CCNc1ncnc2ccc(Br)cc12 [SMER28]
[4]; [7]
  generation of beating cardiac clusters from HADFs: enabled the generation of beating cardiac clusters
  proliferation of HADFs: increased the proliferation of HADFs

## NC(=O)c1ccc(-c2nc(-c3ccc4c(c3)OCCO4)c(-c3ccccn3)[nH]2)cc1 [D 4476, 4-[4-(2,3-Dihydro-1,4-benzodioxin-6-yl)-5-(2-pyridinyl)-1H-imidazol-2-yl]benzamide]
SAPK2/p38
  selectivity over SAPK2/p38: greater than 20 fold

## C[N+](C)(C)CCOC(N)=O [Cch, carbachol]
[2]
  effect on beating frequency: opposite, negative effect

## N#CC(C#N)=Cc1ccc(O)c(O)c1 [AG18, [(3,4-Dihydroxyphenyl)methylene]-propenedinitrile]
[3]
  IC50: 25000 nM

## N#CC(=Cc1ccc2[nH]ccc2c1)C(N)=C(C#N)C#N [AG-370, 2-Amino-4-(1H-indol-5-yl)-1,1,3-tricyanobuta-1,3-diene]
[5]
  IC50: 820000 nM
[3]
  IC50: 20000 nM

## CCCC(=O)[O-].[Na+] [sodium butyrate (NaB), sodium butyrate]
[4]; pretreatment in combination with SMER28
  induction efficiency of HADFs: further increased the induction efficiency of HADFs

## Cc1[nH]c(C=C2C(=O)Nc3ccccc32)c(C)c1CCC(=O)O [SU 6668]
[6]
  IC50: 60 nM
